# Measurements published in patent US20030059338A1, “Methods for sterilizing biological materials using flavonoid/flavonol stabilizers” (priority 2001, published 2003).
# Columns and labels:
# thrombin = test: Thrombin clotting activity (chromagenic) of lyophilized thrombin after gamma irradiation with stabilizer (Example 3); type: biochemical; settings: lyophilized thrombin + 10% BSA, 48.5-51.2 kGy at 1.846-1.949 kGy/hr, 4° C.; epicatechin 200 mM, purpurogallin 1M, biacalein 50 mM
# Method: Samples of thrombin (100 NIH units, 1 ml), alone or in the presence of epicatechin (200 mM) or purpurogallin (1M, Aldrich) or biacalein (50 mM; Aldrich), and 10% bovine serum albumin, were prepared and lyophilized. Lyophilized samples were gamma irradiated to 48.5-51.2 kGy at a dose rate of 1.846-1.949 kGy/hr at 4° C. All samples were then assayed for clotting activity by conventional chromagenic methodology.
# [1] = tested on: anti-insulin monoclonal immunoglobulin; test: ELISA activity of freeze-dried anti-insulin monoclonal immunoglobulin after gamma irradiation with stabilizer (Example 1); type: binding; settings: freeze-dried anti-insulin mAb + 1% BSA, irradiated to 45 kGy at 1.83 kGy/hr, 4° C.; diosmin 39.3 mM or silymarin 246 mM
# Method: Samples were prepared by combining anti-insulin monoclonal antibody ([…] of 2 mg/ml solution) and either diosmin (39.3 mM; Sigma cat# D3525 lot 125H0831) or silymarin (246 mM; Aldrich cat #24592-4) in 3 ml glass vials with 13 mm stoppers. Samples were freeze-dried for approximately 64 hours and stoppered under vacuum and sealed with an aluminum, crimped seal. Samples were irradiated at a dose rate of 1.83 kGy/hr to a total dose of 45 kGy at 4° C. Monoclonal immunoglobulin activity was determined by a standard ELISA protocol. Maxisorp plates were coated with human recombinant insulin at […] overnight at 4° C. The plate was blocked with […] of blocking buffer (PBS, pH 7.4, 2% BSA) for two hours at 37° C. and then washed six times with wash buffer (TBS, pH 7, 0.05% TWEEN 20). Samples were re-suspended in […] of high purity water (100 ng/ml), diluted to 5 Fg/ml in a 300 Fl U-bottomed plate coated for either overnight or two hours with blocking buffer. Serial 3-fold dilutions were performed, with a final concentration of […]. Plates were incubated for one hour at 37° C. with agitation and then washed six times with a wash buffer. Phosphatase-labelled goat anti-mouse IgG (H+L) was diluted to 50 ng/ml in binding buffer and […] was added to each well. […] The plate was read on a Multiskan MCC/340 at 405 nm with the background absorbance at 620 nm subtracted.
Structure (SMILES),thrombin activity retained following gamma irradiation (thrombin),recovery of activity [1] [%]
O=c1cc(-c2ccccc2)oc2cc(O)c(O)c(O)c12 [biacalein],about 57%,
O=c1c(O)cccc2cc(O)c(O)c(O)c12 [purpurogallin],over 90%,
COc1ccc(-c2cc(=O)c3c(O)cc(O[C@@H]4O[C@H](CO[C@@H]5O[C@@H](C)[C@H](O)[C@@H](O)[C@H]5O)[C@@H](O)[C@H](O)[C@H]4O)cc3o2)cc1O [diosmin],,~62
